According to patent publication US12344614B2, “Benzodiazepine derivatives as GABA a GAMMA1 PAM” (Hoffmann-La Roche Inc., priority 2021, dated 2025):
Where two headings read alike, the source gives them in different places.

What was measured:
[1] = molecular target: human GABAA α5β2γ1 receptor (Homo sapiens (Human), UniProt P31644+Q8N1C3); assay: Radioligand binding assay, competition for [3H]RO7239181, membranes from HEK293F cells
Protocol: The affinity of compounds at GABAA γ1 subunit-containing receptors was measured by competition for [^3H]RO7239181 (67.3 Ci/mmol; Roche) binding to membranes from HEK293F cells (ThermoFisher R79007) expressing human (transiently transfected) receptors of composition α5β2γ1, α2β2γ1, α1β2γ1. For better protein expression of the α2 subunit-containing receptors, the 28 amino acid long signal peptide (Met1 to Ala28) of the human GABAA α2 subunit was substituted by the 31 amino acid long signal peptide (Met1 to Ser31) of human GABAA α5 subunit.
(§1) Harvested pellets from HEK293F cells expressing the different GABAA receptor subtypes were resuspended in Mannitol Buffer pH 7.2-7.4 (Mannitol 0.29M, Triethylamine 10 mM, Acetic acid 10 mM, EDTA 1 mM plus protease inhibitors (20 tablets Complete, Roche Diagnostics Cat. No. 05 056 489 001 per liter)), washed two times and then resuspended at 1:10 to 1:15 dilution in the same buffer. Cell disruption was performed by stirring the suspension in a Parr vessel #4637 at 435 psi for 15 minutes, and then the suspensions were centrifuged at 1000×g for 15 minutes at 4° C. (Beckman Avanti J-HC; rotor JS-4.2). The supernatant (S1) was transferred in a 21 Schott flask and the pellet (P1) was resuspended with Mannitol Buffer up to 175 ml. The resuspended pellet was transferred into a 250 ml Corning centrifugal beaker and centrifuged at 1500×g for 10 minutes at 4° C. (Beckman Avanti J-HC; rotor JS-4.2). The supernatant (S1) was then transferred in the 21 Schott flask and the pellet was discarded. The supernatants (S1) were centrifuged in 500 ml Beckman polypropylene centrifugal beaker at 15′000×g for 30 minutes at 4° C. (Beckman Avanti J-20 XP; rotor JLA-10.500). The pellet (P2) was resuspended with Mannitol Buffer 1:1 and frozen at −80° C. The supernatant (S2) was centrifuged in 100 ml Beckman polypropylene centrifugal tubes at 48000×g for 50 minutes at 4° C. (Beckman Avanti J-20 XP; rotor JA-18). The supernatant (S3) was discarded and the pellet (P3) was resuspended with 1:1 Mannitol Buffer. The P2 and P3 protein concentration was determined with the BIORAD Standard assay method with bovine serum albumin as standard and measured on the NANO-Drop 1000. The membrane suspension was aliquots (500 μl per tube) and stored at −80° C. until required.
(§2) Membrane homogenates were resuspended and polytronised (Polytron PT1200E Kinematica AG) in Potassium Phosphate 10 mM, KCl 100 mM binding buffer at pH 7.4 to a final assay concentration determined with a previous experiment.
Radioligand binding assays were carried out in a volume of 200 μL (96-well plates) which contained 100 μL of cell membranes, [^3H]RO7239181 at a concentration of 1.5 nM (α5β2γ1) or 20-30 nM (α1β2γ1, α2β2γ1) and the test compound in the range of [0.3-10000]×10^−9 M. Nonspecific binding was defined by 10×10^−6 (α5β2γ1) and 30×10^−6 M RO7239181 and typically represented less than 5% (α5β2γ1) and less than 20% (α1β2γ1, α2β2γ1) of the total binding. Assays were incubated to equilibrium for 1 hour at 4° C. and then, membranes were filtered onto unifilter (96-well white microplate with bonded GF/C filters preincubated 20-50 minutes in 0.3% Polyethylenimine) with a Filtermate 196 harvester (Packard BioScience) and washed 4 times with cold Potassium Phosphate 10 mM pH 7.4, KCl 100 mM binding buffer. After anhydrousing, filter-retained radioactivity was detected by liquid scintillation counting. Ki values were calculated using Excel-Fit (Microsoft) and are the means of two determinations.
Representative test results, obtained by the above described assay measuring binding affinity to HEK293 cells expressing human (h) receptors, are shown in the Table 1.

[2] = molecular target: human GABAA α2β2γ1 receptor (Homo sapiens (Human), UniProt P47869+Q8N1C3); assay: as above
Protocol: The affinity of compounds at GABAA γ1 subunit-containing receptors was measured by competition for [^3H]RO7239181 (67.3 Ci/mmol; Roche) binding to membranes from HEK293F cells (ThermoFisher R79007) expressing human (transiently transfected) receptors of composition α5β2γ1, α2β2γ1, α1β2γ1.
as §1, §2
Assays were incubated to equilibrium for 1 hour at 4° C. and then, membranes were filtered onto unifilter (96-well white microplate with bonded GF/C filters preincubated 20-50 minutes in 0.3% Polyethylenimine) with a Filtermate 196 harvester (Packard BioScience) and washed 4 times with cold Potassium Phosphate 10 mM pH 7.4, KCl 100 mM binding buffer. After anhydrousing, filter-retained radioactivity was detected by liquid scintillation counting. Ki values were calculated using Excel-Fit (Microsoft) and are the means of two determinations.

[3] = molecular target: human GABAA α1β3γ2 receptor (Homo sapiens (Human), UniProt P14867+P18507); assay: Radioligand binding assay, competition for [3H]Flumazenil, HEK293F cells; settings: for γ2/γ1 Selectivity Ratio: Ki α1β3γ2 (nM)/Ki α2β2γ1 (nM); for LogSel: Log[Ki α1β3γ2 (nM)/Ki α2β2γ1 (nM)]
Protocol: The affinity of compounds at GABAA γ2 subunit-containing receptors was measured by competition for [^3H]Flumazenil (81.1 Ci/mmol; Roche) binding to HEK293F cells expressing human (transiently transfected) receptors of composition α1β3γ2.
Harvested pellets from HEK293F cells expressing the different GABAA γ2 receptor subtypes were resuspended in Mannitol Buffer pH 7.2-7.4 and processed as described above for the cells expressing the GABAA γ1 subunit-containing receptors.
Assays were incubated to equilibrium for 1 hour at 4° C. and harvested onto GF/C uni-filters (Packard) by filtration using a Packard harvester and washing with ice-cold wash buffer (50 mM Tris; pH 7.5). After anhydrousing, filter-retained radioactivity was detected by liquid scintillation counting. Ki values were calculated using Excel-Fit (Microsoft) and are the means of two determinations.

[4] = read-out: Ki h-GABAA α2β2γ1, [3H]RO7239181 20-30 nM, HEK293F membranes, 1 hour at 4° C., mean of two determinations

Row | Compound | Ki [1] | Ki [2] | Ki [2, 4] | Ki [3] | γ2/γ1 Selectivity Ratio [3] | LogSel [3]
1 | COC1CN(C(=O)c2nc3n(n2)-c2ccc(Cl)c(Cl)c2C(c2cc(O)ccc2F)=NC3)C1 [Example 7, [7,8-dichloro-6-(2-fluoro-5-hydroxy-phenyl)-4H-[1,2,4]triazolo[1,5-a][1,4]benzodiazepin-2-yl]-(3-methoxyazetidin-1-yl)methanone] | 1.4 nM | 2.22 nM | 2.22 nM | 34.6 nM | 15.6 | 1.19
2 | CN1C(=O)CN=C(c2cc(O)ccc2F)c2c1ccc(C(F)(F)F)c2Cl [Example 8, 6-chloro-5-(2-fluoro-5-hydroxy-phenyl)-1-methyl-7-(trifluoromethyl)-3H-1,4-benzodiazepin-2-one] | 0.44 nM | 2.35 nM | 2.35 nM | 80.9 nM | 34.4 | 1.54
3 | C[C@@H]1N=C(c2c(F)ccc(O)c2F)c2c(ccc(Cl)c2Cl)-n2ccc(=O)nc21 [Example 18, (5S)-8,9-dichloro-7-(2,6-difluoro-3-hydroxy-phenyl)-5-methyl-5H-pyrimido[1,2-a][1,4]benzodiazepin-3-one] | 1.3 nM | 6.6 nM | 6.6 nM | 255 nM | 38.7 | 1.59
4 | Cc1nnc2n1-c1ccc(C(F)(F)F)c(Cl)c1C(c1cc(O)ccc1F)=NC2 [Example 9, 3-[7-chloro-1-methyl-8-(trifluoromethyl)-4H-[1,2,4]triazolo[4,3-a][1,4]benzodiazepin-6-yl]-4-fluoro-phenol] | 0.86 nM | 3.25 nM | 3.25 nM | 106 nM | 32.6 | 1.51
5 | C[C@@H]1N=C(c2cc(O)ccc2F)c2c(ccc(Cl)c2Cl)-n2ccc(=O)nc21 [Example 5, (5S)-8,9-dichloro-7-(2-fluoro-5-hydroxy-phenyl)-5-methyl-5H-pyrimido[1,2-a][1,4]benzodiazepin-3-one] | 0.39 nM | 1.4 nM | 1.4 nM | 255 nM | 182.4 | 2.26
6 | Cc1nnc2n1-c1ccc(Cl)c(Cl)c1C(c1cc(O)ccc1F)=NC2 [Example 3, 3-(7,8-dichloro-1-methyl-4H-[1,2,4]triazolo[4,3-a][1,4]benzodiazepin-6-yl)-4-fluoro-phenol] | 0.36 nM | 1.45 nM | 1.45 nM | 34.3 nM | 23.7 | 1.37
7 | C[C@@H]1N=C(c2nc(O)ccc2F)c2c(ccc(C(F)(F)F)c2Cl)-n2cc(C(=O)N3CCC3)nc21 [Example 30, azetidin-1-yl-[(4S)-7-chloro-6-(3-fluoro-6-hydroxy-2-pyridyl)-4-methyl-8-(trifluoromethyl)-4H-imidazo[1,2-a][1,4]benzodiazepin-2-yl]methanone] | 8.77 nM | 46.3 nM | 46.3 nM | 13000 nM | 280.8 | 2.45
8 | Cc1nc2n(n1)-c1ccc(C(F)(F)F)c(Cl)c1C(c1nc(O)ccc1F)=N[C@H]2C [Example 25, 6-[(4S)-7-chloro-2,4-dimethyl-8-(trifluoromethyl)-4H-[1,2,4]triazolo[1,5-a][1,4]benzodiazepin-6-yl]-5-fluoro-pyridin-2-ol] | 2.32 nM | 10.9 nM | 10.9 nM | 10600 nM | 977.2 | 2.99
9 | Cc1nnc2n1-c1ccc(C(F)(F)F)c(Cl)c1C(c1nc(O)ccc1F)=N[C@H]2C [Example 20, 6-[(4S)-7-chloro-1,4-dimethyl-8-(trifluoromethyl)-4H-[1,2,4]triazolo[4,3-a][1,4]benzodiazepin-6-yl]-5-fluoro-pyridin-2-ol] | 5.02 nM | 40.1 nM | 40.1 nM | 11200 nM | 279.6 | 2.45
10 | Cc1nnc2n1-c1ccc(C(F)(F)F)c(Cl)c1C(c1nc(O)ccc1Cl)=N[C@H]2C [Example 22, 5-chloro-6-[(4S)-7-chloro-1,4-dimethyl-8-(trifluoromethyl)-4H-[1,2,4]triazolo[4,3-a][1,4]benzodiazepin-6-yl]pyridin-2-ol] | 20.9 nM | 13.7 nM | 13.7 nM | 9690 nM | 704.8 | 2.85
11 | O=c1ccn2c(n1)CN=C(c1cc(O)ccc1F)c1c-2ccc(C(F)(F)F)c1Cl [Example 11, 8-chloro-7-(2-fluoro-5-hydroxy-phenyl)-9-(trifluoromethyl)-5H-pyrimido[1,2-a][1,4]benzodiazepin-3-one] | 1.54 nM | 1.88 nM | 1.88 nM | 359 nM | 191.3 | 2.28
12 | Cc1ccc2c(c1Cl)C(c1cc(O)ccc1F)=NCC(=O)N2C [Example 2, 6-chloro-5-(2-fluoro-5-hydroxy-phenyl)-1,7-dimethyl-3H-1,4-benzodiazepin-2-one] | 0.53 nM | 1.49 nM | 1.49 nM | 58.2 nM | – | 1.59
13 | Oc1ccc(F)c(C2=NCc3nncn3-c3ccc(C(F)(F)F)c(Cl)c32)c1 [Example 10, 3-[7-chloro-8-(trifluoromethyl)-4H-[1,2,4]triazolo[4,3-a][1,4]benzodiazepin-6-yl]-4-fluoro-phenol] | 0.27 nM | 1.04 nM | 1.04 nM | 89.9 nM | 86.5 | 1.94
14 | Cc1cnc2n1-c1ccc(C(F)(F)F)c(Cl)c1C(c1nc(O)ccc1F)=N[C@H]2C [Example 23, 6-[(4S)-7-chloro-1,4-dimethyl-8-(trifluoromethyl)-4H-imidazo[1,2-a][1,4]benzodiazepin-6-yl]-5-fluoro-pyridin-2-ol] | 3.08 nM | 8.88 nM | 8.88 nM | 8010 nM | 902.4 | 2.96
